Like-named read-outs stand apart in the source and are kept apart here.
Assays:
urease [1] = test: Screening trials: hydrolysis of urea in soil; settings: first few days of application; with DMPSA present
nitrification [2] = test: Soil incubation trial: recovery of applied urea N as ammonium; settings: for percentage recovery in the form of ammonium, % of applied urea (13 mg N): 28 days after application, Filder loam pH 6.8, 20° C., 200 kg urea N/ha, label gives UI/NI fraction of recommended rate (0.6 g NBPT, 3.6 g DMPSA per kg urea)
Protocol: % of applied urea (13 mg N)
A determination was carried out 28 days after application of the urea, with the percentage recovery in the form of ammonium being reported.

nitrification [3] = test: Soil incubation trial: cumulative laughing gas (N2O-N) emission; settings: 77 mg N applied; for N2O—N cumulative, % of appl.: cumulative over 28 days
urease [4] = settings: for Ammonia emission, % of the urea applied (77 mg N): Filder loam, 20° C., label gives UI/NI fraction of recommended rate
Protocol: Screening trials were conducted to evaluate the effect of DMPSA and NBPT in the inhibition of urease and inhibition of nitrification, and to find suitable quantities for use. Serving for this purpose was a two-factorial trial design including an unfertilized control sample. For the urease inhibitor NBPT and for the nitrification inhibitor DMPSA, in each case 0%, 33%, 66% and 100% of the application rates recommended for the individual compounds when used alone were used (in this example, 0.6 g of NBPT per kg of urea and, respectively, 3.6 g of DMPSA per kg of urea), giving 16 trials (0%-0% to 100%-100%), in addition to the unfertilized control sample.
Urea fertilizer was delivered in an amount of 200 kg nitrogen per ha, corresponding to 0.51 mg of urea nitrogen per g of soil. The soil used was Filder loam with a pH of 6.8. The incubation trials were carried out at 20° C. For the investigation of trace gases, air supply was passed first through a gas sample, then through a 250 ml capacity glass bottle containing 150 g of soil, subsequently through a gas sample for the outgoing air and through an acid trap, in order, for example, to determine amounts of ammonia. For the measurement of nitrogen, about 20 g of soil were incubated; for the measurement of urea, about 5 g of soil.

nitrification [5] = test: Soil incubation trial: nitrate formed from applied urea N; settings: Filder loam, 20° C., label gives UI/NI fraction of recommended rate
Protocol: % of the urea applied (13 mg N)

CCCCNP(N)(N)=S [NBPT, N-(n-butyl)thiophosphoric triamide]
inhibition of the hydrolysis of urea (urease [1]): sufficiently inhibits the hydrolysis of urea | percentage recovery in the form of ammonium, % of applied urea (13 mg N) (nitrification [2]; listed as UI 1 NI 0): 28% | percentage recovery in the form of ammonium, % of applied urea (13 mg N) (nitrification [2]; listed as UI ⅓ NI 0): 9% | percentage recovery in the form of ammonium, % of applied urea (13 mg N) (nitrification [2]; listed as UI ⅔ NI 0): 21% | supplementary influence on ammonium recovery (nitrification [2]; after 28 days): no supplementary influence | N2O—N cumulative (nitrification [3]; 0 days after appl., 150 g soil): 0 μg N2O—N Bottle^1 | N2O—N cumulative (nitrification [3]; 0.5 days after appl.): 0 μg N2O—N Bottle^1 | N2O—N cumulative (nitrification [3]; 1 day after appl., listed as UI-1_NI-0): 2 μg N2O—N Bottle^1 | N2O—N cumulative (nitrification [3]; 1 day after appl., listed as UI-2_NI-0): 1 μg N2O—N Bottle^1 | N2O—N cumulative (nitrification [3]; 1 day after appl., listed as UI-3_NI-0): 2 μg N2O—N Bottle^1 | N2O—N cumulative (nitrification [3]; 2 days after appl., listed as UI-1_NI-0): 3 μg N2O—N Bottle^1 | N2O—N cumulative (nitrification [3]; 2 days after appl., listed as UI-2_NI-0): 2 μg N2O—N Bottle^1 | N2O—N cumulative (nitrification [3]; 2 days after appl., listed as UI-3_NI-0): 7 μg N2O—N Bottle^1 | N2O—N cumulative (nitrification [3]; 3 days after appl., listed as UI-1_NI-0): 4 μg N2O—N Bottle^1 | N2O—N cumulative (nitrification [3]; 3 days after appl., listed as UI-2_NI-0): 3 μg N2O—N Bottle^1 | N2O—N cumulative (nitrification [3]; 3 days after appl., listed as UI-3_NI-0): 10 μg N2O—N Bottle^1 | N2O—N cumulative (nitrification [3]; 4 days after appl., listed as UI-1_NI-0): 5 μg N2O—N Bottle^1 | N2O—N cumulative (nitrification [3]; 4 days after appl., listed as UI-2_NI-0): 3 μg N2O—N Bottle^1 | N2O—N cumulative (nitrification [3]; 4 days after appl., listed as UI-3_NI-0): 11 μg N2O—N Bottle^1 | N2O—N cumulative (nitrification [3]; 5 days after appl., listed as UI-1_NI-0): 7 μg N2O—N Bottle^1 | N2O—N cumulative (nitrification [3]; 5 days after appl., listed as UI-2_NI-0): 4 μg N2O—N Bottle^1 | N2O—N cumulative (nitrification [3]; 5 days after appl., listed as UI-3_NI-0): 12 μg N2O—N Bottle^1 | N2O—N cumulative (nitrification [3]; 6 days after appl., listed as UI-1_NI-0): 16 μg N2O—N Bottle^1 | N2O—N cumulative (nitrification [3]; 6 days after appl., listed as UI-2_NI-0): 8 μg N2O—N Bottle^1 | N2O—N cumulative (nitrification [3]; 6 days after appl., listed as UI-3_NI-0): 13 μg N2O—N Bottle^1 | N2O—N cumulative (nitrification [3]; 8 days after appl., listed as UI-1_NI-0): 32 μg N2O—N Bottle^1 | N2O—N cumulative (nitrification [3]; 8 days after appl., listed as UI-2_NI-0): 16 μg N2O—N Bottle^1 | N2O—N cumulative (nitrification [3]; 8 days after appl., listed as UI-3_NI-0): 20 μg N2O—N Bottle^1 | N2O—N cumulative (nitrification [3]; 10 days after appl., listed as UI-1_NI-0): 48 μg N2O—N Bottle^1 | N2O—N cumulative (nitrification [3]; 10 days after appl., listed as UI-2_NI-0): 36 μg N2O—N Bottle^1 | N2O—N cumulative (nitrification [3]; 10 days after appl., listed as UI-3_NI-0): 31 μg N2O—N Bottle^1 | N2O—N cumulative (nitrification [3]; 12 days after appl., listed as UI-1_NI-0): 75 μg N2O—N Bottle^1 | N2O—N cumulative (nitrification [3]; 12 days after appl., listed as UI-2_NI-0): 67 μg N2O—N Bottle^1 | N2O—N cumulative (nitrification [3]; 12 days after appl., listed as UI-3_NI-0): 52 μg N2O—N Bottle^1 | N2O—N cumulative (nitrification [3]; 14 days after appl., listed as UI-1_NI-0): 122 μg N2O—N Bottle^1 | N2O—N cumulative (nitrification [3]; 14 days after appl., listed as UI-2_NI-0): 125 μg N2O—N Bottle^1 | N2O—N cumulative (nitrification [3]; 14 days after appl., listed as UI-3_NI-0): 90 μg N2O—N Bottle^1 | N2O—N cumulative (nitrification [3]; 17 days after appl., listed as UI-1_NI-0): 144 μg N2O—N Bottle^1 | N2O—N cumulative (nitrification [3]; 17 days after appl., listed as UI-2_NI-0): 145 μg N2O—N Bottle^1 | N2O—N cumulative (nitrification [3]; 17 days after appl., listed as UI-3_NI-0): 99 μg N2O—N Bottle^1 | N2O—N cumulative (nitrification [3]; 18 days after appl., listed as UI-1_NI-0): 179 μg N2O—N Bottle^1 | N2O—N cumulative (nitrification [3]; 18 days after appl., listed as UI-2_NI-0): 190 μg N2O—N Bottle^1 | N2O—N cumulative (nitrification [3]; 18 days after appl., listed as UI-3_NI-0): 125 μg N2O—N Bottle^1 | N2O—N cumulative (nitrification [3]; 20 days after appl., listed as UI-1_NI-0): 203 μg N2O—N Bottle^1 | N2O—N cumulative (nitrification [3]; 20 days after appl., listed as UI-2_NI-0): 215 μg N2O—N Bottle^1 | N2O—N cumulative (nitrification [3]; 20 days after appl., listed as UI-3_NI-0): 141 μg N2O—N Bottle^1 | N2O—N cumulative (nitrification [3]; 22 days after appl., listed as UI-1_NI-0): 238 μg N2O—N Bottle^1 | N2O—N cumulative (nitrification [3]; 22 days after appl., listed as UI-2_NI-0): 249 μg N2O—N Bottle^1 | N2O—N cumulative (nitrification [3]; 22 days after appl., listed as UI-3_NI-0): 156 μg N2O—N Bottle^1 | N2O—N cumulative (nitrification [3]; 24 days after appl., listed as UI-1_NI-0): 343 μg N2O—N Bottle^1 | N2O—N cumulative (nitrification [3]; 24 days after appl., listed as UI-2_NI-0): 312 μg N2O—N Bottle^1 | N2O—N cumulative (nitrification [3]; 24 days after appl., listed as UI-3_NI-0): 174 μg N2O—N Bottle^1 | N2O—N cumulative (nitrification [3]; 28 days after appl., listed as UI-1_NI-0): 497 μg N2O—N Bottle^1 | N2O—N cumulative (nitrification [3]; 28 days after appl., listed as UI-2_NI-0): 397 μg N2O—N Bottle^1 | N2O—N cumulative (nitrification [3]; 28 days after appl., listed as UI-3_NI-0): 194 μg N2O—N Bottle^1 | N2O—N cumulative, % of appl. (nitrification [3]; listed as UI-1_NI-0): 0.65 % of appl. | N2O—N cumulative, % of appl. (nitrification [3]; listed as UI-2_NI-0): 0.52 % of appl. | N2O—N cumulative, % of appl. (nitrification [3]; listed as UI-3_NI-0): 0.25 % of appl. | reduction in ammonia emissions (urease [4]; 66% NBPT, especially 9 days after application): notable and almost complete reduction in ammonia emissions | Ammonia emission, % of the urea applied (77 mg N) (urease [4]; 4 days after application, listed as UI 1 NI 0): 0.0% | Ammonia emission, % of the urea applied (77 mg N) (urease [4]; 4 days after application, listed as UI ⅓ NI 0): 0.3% | Ammonia emission, % of the urea applied (77 mg N) (urease [4]; 4 days after application, listed as UI ⅔ NI 0): 0.1% | Ammonia emission, % of the urea applied (77 mg N) (urease [4]; 9 days after application, listed as UI 1 NI 0): 0.0% | Ammonia emission, % of the urea applied (77 mg N) (urease [4]; 9 days after application, listed as UI ⅓ NI 0): 1.1% | Ammonia emission, % of the urea applied (77 mg N) (urease [4]; 9 days after application, listed as UI ⅔ NI 0): 0.2% | effect on the increase in ammonia emission caused by the nitrification inhibitor (urease [4]; addition of NBPT): prevent the increase in ammonia emission | Nitrate, % of the urea applied (13 mg N) (nitrification [5]; 5 days after application, listed as UI 1 NI 0): 11% | Nitrate, % of the urea applied (13 mg N) (nitrification [5]; 5 days after application, listed as UI ⅓ NI 0): 10% | Nitrate, % of the urea applied (13 mg N) (nitrification [5]; 5 days after application, listed as UI ⅔ NI 0): 11% | Nitrate, % of the urea applied (13 mg N) (nitrification [5]; 28 days after application, listed as UI 1 NI 0): 52% | Nitrate, % of the urea applied (13 mg N) (nitrification [5]; 28 days after application, listed as UI ⅓ NI 0): 58% | Nitrate, % of the urea applied (13 mg N) (nitrification [5]; 28 days after application, listed as UI ⅔ NI 0): 64%

From patent publication US11104619B2, “Mixture for treating fertilizers containing urea” (EuroChem Agro GmbH, priority 2015, dated 2021)
